According to patent US7851500B2, “Aminopyrazole kinase inhibitors” (Bristol-Myers Squibb Company, priority 2007, dated 2010):

These compounds were tested against IGF1-receptor (Homo sapiens, UniProt P08069) (assay: IGF1-Receptor Tyrosine Kinase Assay). Conditions: ATP 25 μM; FL-peptide 1.5 μM; IGF1-Receptor 14 nM; 60 min room temperature; Caliper LabChip 3000; read-out: IGF-1R IC50.
Type: biochemical
Description: D. IGF1-Receptor Tyrosine Kinase Assay
The assays were performed in U-bottom 384-well plates. The final assay volume was 30 μl prepared from 15 μl additions of enzyme and substrates (fluoresceinated IGF1R substrate peptide and ATP) and test compounds in assay buffer (100 mM HEPES pH 7.4, 10 mM MnCl2, 0.015% Brij35 and 4 mM DTT). The reaction was initiated by the combination of IGF1-receptor with substrates and test compounds. The reaction was incubated at room temperature for 60 min. and terminated by adding 30 μl of 35 mM EDTA to each sample. The reaction mixture was analyzed on the Caliper LabChip 3000 by electrophoretic separation of the fluorescent substrate and phosphorylated product. Inhibition data were calculated by comparison to no enzyme control reactions for 100% inhibition and vehicle-only reactions for 0% inhibition. The final concentration of reagents in the assays is ATP, 25 μM; FL-peptide, 1.5 μM; IGF1-Receptor, 14 nM; and DMSO, 1.6%. Dose response curves were generated to determine the concentration required inhibiting 50% of kinase activity (IC50). Compounds were dissolved at 10 mM in dimethylsulfoxide (DMSO) and evaluated at eleven concentrations, each in duplicate. IC50 values were derived by non-linear regression analysis
Compounds described herein were tested in the above assay.

IGF1-receptor, sequence (P08069 31-1367): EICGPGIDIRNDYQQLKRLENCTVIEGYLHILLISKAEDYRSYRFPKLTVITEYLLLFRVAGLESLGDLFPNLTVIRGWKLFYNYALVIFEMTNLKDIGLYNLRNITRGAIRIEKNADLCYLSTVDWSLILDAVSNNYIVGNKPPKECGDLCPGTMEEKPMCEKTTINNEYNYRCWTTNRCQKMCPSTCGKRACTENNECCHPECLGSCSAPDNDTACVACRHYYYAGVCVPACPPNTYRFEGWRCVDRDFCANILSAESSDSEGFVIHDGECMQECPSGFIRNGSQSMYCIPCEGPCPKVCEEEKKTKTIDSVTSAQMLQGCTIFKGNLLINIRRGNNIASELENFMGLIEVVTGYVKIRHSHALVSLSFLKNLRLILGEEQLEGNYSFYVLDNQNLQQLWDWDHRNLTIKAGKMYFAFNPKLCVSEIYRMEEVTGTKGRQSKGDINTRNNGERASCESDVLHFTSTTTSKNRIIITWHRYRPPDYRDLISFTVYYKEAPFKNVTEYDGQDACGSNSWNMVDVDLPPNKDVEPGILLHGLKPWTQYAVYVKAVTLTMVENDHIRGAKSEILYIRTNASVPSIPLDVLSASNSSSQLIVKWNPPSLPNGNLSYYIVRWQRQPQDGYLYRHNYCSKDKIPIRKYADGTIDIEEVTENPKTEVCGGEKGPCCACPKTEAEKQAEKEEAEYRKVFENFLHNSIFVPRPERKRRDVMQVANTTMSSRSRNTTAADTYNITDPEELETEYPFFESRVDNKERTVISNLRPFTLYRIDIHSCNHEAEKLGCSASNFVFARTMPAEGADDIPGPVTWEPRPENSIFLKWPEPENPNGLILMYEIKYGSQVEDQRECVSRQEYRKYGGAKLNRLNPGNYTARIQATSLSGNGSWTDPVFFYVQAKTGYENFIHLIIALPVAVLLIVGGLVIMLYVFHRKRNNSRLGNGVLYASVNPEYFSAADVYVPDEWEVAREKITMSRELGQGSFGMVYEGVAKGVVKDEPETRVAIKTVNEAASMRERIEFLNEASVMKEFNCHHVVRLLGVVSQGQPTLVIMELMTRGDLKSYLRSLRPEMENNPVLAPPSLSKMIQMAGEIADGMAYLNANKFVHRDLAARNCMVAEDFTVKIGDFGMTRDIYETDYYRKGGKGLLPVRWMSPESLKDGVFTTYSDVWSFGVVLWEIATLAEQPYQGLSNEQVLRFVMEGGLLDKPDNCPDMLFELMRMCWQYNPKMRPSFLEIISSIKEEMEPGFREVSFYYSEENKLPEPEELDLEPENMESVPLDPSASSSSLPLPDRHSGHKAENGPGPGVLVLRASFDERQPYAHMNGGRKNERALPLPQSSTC

Structure (SMILES)	IC50 [nM]
CCOC(=O)c1cccc(Sc2cc(Nc3ncnn4cccc34)n[nH]2)c1 [Example 1, Ethyl 3-(3-(pyrrolo[1,2-f][1,2,4]triazin-4-ylamino)-1H-pyrazol-5-ylthio)benzoate]	> 25000
O=C(NC1CN(S(=O)(=O)c2ccccc2)C1)c1cccc(Sc2cc(Nc3ncnn4cccc34)n[nH]2)c1 [Example 3, N-(1-(Phenylsulfonyl)azetidin-3-yl)-3-(3-pyrrolo[1,2-f][1,2,4]triazin-4-ylamino-1H-pyrazol-5-ylthio)benzamide]	12.4
NC(=O)c1cccc(Sc2cc(Nc3ncnn4cccc34)n[nH]2)c1 [Example 4, 3-(3-(Pyrrolo[1,2-f][1,2,4]triazin-4-ylamino)-1H-pyrazol-5-ylthio)benzamide]	4470
CC(C)(C)OC(=O)N1CC(NC(=O)c2cccc(Sc3cc(Nc4ncnn5cccc45)n[nH]3)c2)C1 [Example 5]	295
O=C(NCCc1c[nH]cn1)c1cccc(Sc2cc(Nc3ncnn4cccc34)n[nH]2)c1 [Example 8, N-(2-(1H-Imidazol-4-yl)ethyl)-3-(3-(pyrrolo[1,2-f][1,2,4]triazin-4-ylamino)-1H-pyrazol-5-ylthio)benzamide]	3190
O=C(NC1CN(S(=O)(=O)c2ccc(F)cc2)C1)c1cccc(Sc2cc(Nc3ccccn3)n[nH]2)c1 [Example 10, N-(1-(4-Fluorophenylsulfonyl)azetidin-3-yl)-3-(3-(pyridin-2-ylamino)-1H-pyrazol-5-ylthio)benzamide]	15.1
